Results as given in patent US4256742A, “Antidepressant oxime ethers of dibenzocycloheptaziridones” (E. I. Du Pont de Nemours and Company, priority 1979, dated 1981).
Where a name gives a salt, the structure may show the parent alone. Read-outs that look alike come from different tables or passages of the source.

Columns and labels:
[1] = tested on: tetrabenazine-induced sedation and depression; test: Antitetrabenazine test: prevention of tetrabenazine-induced sedation and ptosis in mice; assay type: in vivo, mice (Carworth CF1 S female); conditions: tetrabenazine 32 mg/kg i.p. 30 min later, examined 1 h after antagonist; for ED50: Mus musculus
Procedure: This mouse test is predictive of human antidepressant response (Everett, "The Dopa Response Petentiation Test and Its Use in Screening for Antidepressant Drugs", pp. 164-167 in "Antidepressant Drugs" [Proceedings of the First International Symposium], S. Garattini and M. N. G. Dukes, eds. 1967).
Groups of 10 Carworth CF1 S female mice, 18-21 g each, were fasted 1.5 hours and were intubated with antagonist compounds at oral doses of 0, 0.33, 1, 3, 9, 27, and 81 mg/kg in 0.20 ml of 1% Methocel. The mice were challenged 30 minutes later with tetrabenazine (as the methane-sulfonate),32 mg/kg intraperitoneally (dissolved in 0.20 ml 0.05 M KCl at pH 2.0). One hour after antagonist (30 minutes after tetrabenazine), the mice were examined for signs of exploratory activity and ptosis (eyelid closure). Normal exploratory activity (relief from sedation) was recorded when a mouse lifted by the tail from a group of 10 in a testing box and placed on a stainless steel testing box lid (12.5"×8" with 0.33" mesh) either turned its head horizontally 30° in both directions or moved to the edge of the screen within 10 seconds after being placed on the screen. Relief from ptosis was recorded when exactly two seconds after placing the mouse facing the observer, lid closure was less than 50% in both eyes. Table 1 gives the results in mg/kg for examples of the invention and for the established standard antidepressant, amitriptyline.

[2] = Water solubility of the salts; assay type: physicochemical; conditions: salt as isolated
[3] = po, 1 h, read-out: ED50 in antitetrabenazine test, blockade of exploratory loss (Explor.), oral, female mice, normal exploratory activity (relief from sedation)
[4] = po, 1 h, read-out: ED50 in antitetrabenazine test, blockade of ptosis, oral, female mice, relief from ptosis
[5] = oral, female mice, normal exploratory activity (relief from sedation), read-out: ED50 in antitetrabenazine test, blockade of exploratory loss (Explor.)
[6] = oral, female mice, relief from ptosis, read-out: ED50 in antitetrabenazine test, blockade of ptosis

SMILES: CN(C)CCON=C1c2ccccc2C2C(c3ccccc31)N2CC1CC1 (stereo not shown) [Example 21]
- ED50 [1, 3]: 11.8 mg/kg
- ED50 [1, 4]: 10.8 mg/kg

SMILES: CN(C)CCC=C1c2ccccc2CCc2ccccc21 [AMTRIPTYLINE, amitriptyline, reference compound]
- ED50 [1, 5]: 2.6 mg/kg
- ED50 [1, 6]: 1.2 mg/kg

SMILES: CN(C)CCON=C1c2ccccc2C2C(c3ccccc31)N2C (stereo not shown) [Example 3, O-[2-(Dimethylamino)ethyl]oxime of 1a,10b-Dihydrodibenzo-[3,4,6,7]cyclohept[1,2-b]-N-methylazirin-6(1H)-one]
- ED50 [1, 4]: 0.65 mg/kg
- ED50 in antitetrabenazine test, blockade of exploratory loss (Explor.) ([1]; oral, female mice, normal exploratory activity (relief from sedation), listed as R^2=CH2 CH2 N(CH3)2, R^1=CH3, Z=--, 60 min): 0.93 mg/kg

SMILES: CN(C)CCON=C1c2ccccc2C2NC2c2ccccc21 (stereo not shown) [Example 2, O-[2-(Dimethylamino)ethyl]oxime of 1a,10b-dihydrodibenzo[3,4,6,7]cyclohept[1,2-b]azirin-6(1H)-one]
- ED50 in antitetrabenazine test, blockade of exploratory loss (Explor.) ([1]; oral, female mice, normal exploratory activity (relief from sedation), listed as R^2=CH2 CH2 N(CH3)2, R^1=H, Z=--, 60 min): 1.1 mg/kg
- ED50 in antitetrabenazine test, blockade of ptosis ([1]; oral, female mice, relief from ptosis, listed as R^2=CH2 CH2 N(CH3)2, R^1=H, Z=--, 60 min): 0.65 mg/kg

SMILES: CCCCNCCON=C1c2ccccc2C2NC2c2ccccc21 (stereo not shown) [Example 15]
- ED50 [1, 3]: > 81 mg/kg
- ED50 [1, 4]: 13.3 mg/kg

SMILES: CN(C)CCCON=C1c2ccccc2C2NC2c2ccccc21 (stereo not shown) [Example 9]
- ED50 [1, 3]: 32 mg/kg
- ED50 [1, 4]: 18 mg/kg

SMILES: CNCCON=C1c2ccccc2C2NC2c2ccccc21 (stereo not shown) [Example 8]
- ED50 in antitetrabenazine test, blockade of exploratory loss (Explor.) ([1]; oral, female mice, normal exploratory activity (relief from sedation), listed as R^2=CH2 CH2 NHCH3, R^1=H, Z=--, 60 min): 1.9 mg/kg
- ED50 in antitetrabenazine test, blockade of ptosis ([1]; oral, female mice, relief from ptosis, listed as R^2=CH2 CH2 NHCH3, R^1=H, Z=--, 60 min): 0.57 mg/kg

SMILES: CN(C)CCON=C1c2ccccc2C2NC2c2ccccc21 (stereo not shown) [Example 18]
- ED50 in antitetrabenazine test, blockade of exploratory loss (Explor.) ([1]; oral, female mice, normal exploratory activity (relief from sedation), listed as R^2=CH2 CH2 N(CH3)2, R^1=H, Z=. HCl, 60 min): 2.2 mg/kg
- ED50 in antitetrabenazine test, blockade of ptosis ([1]; oral, female mice, relief from ptosis, listed as R^2=CH2 CH2 N(CH3)2, R^1=H, Z=. HCl, 60 min): 1.0 mg/kg
- water solubility (in words) [2]: Water Soluble

SMILES: CNCCON=C1c2ccccc2C2NC2c2ccccc21 (stereo not shown) [Example 20]
- ED50 in antitetrabenazine test, blockade of exploratory loss (Explor.) ([1]; oral, female mice, normal exploratory activity (relief from sedation), listed as R^2=CH2 CH2 NHCH3, R^1=H, Z=drawing 42, 60 min): 6.2 mg/kg
- ED50 in antitetrabenazine test, blockade of ptosis ([1]; oral, female mice, relief from ptosis, listed as R^2=CH2 CH2 NHCH3, R^1=H, Z=drawing 42, 60 min): 1.3 mg/kg
- water solubility (in words) [2]: Water Soluble

SMILES: CN(C)CCON=C1c2ccccc2C2NC2c2ccccc21 (stereo not shown) [Example 17]
- ED50 in antitetrabenazine test, blockade of exploratory loss (Explor.) ([1]; oral, female mice, normal exploratory activity (relief from sedation), listed as R^2=CH2 CH2 N(CH3)2, R^1=H, Z=. Tartrate, 60 min): 0.57 mg/kg
- ED50 in antitetrabenazine test, blockade of ptosis ([1]; oral, female mice, relief from ptosis, listed as R^2=CH2 CH2 N(CH3)2, R^1=H, Z=. Tartrate, 60 min): 0.33 mg/kg
- water solubility (in words) [2]: Water Soluble

SMILES: c1ccc2c(c1)C(=NOCCN1CCOCC1)c1ccccc1C1NC21 (stereo not shown) [R^2=drawing 46; R^1=H; Z=--]
- ED50 [1, 3]: 16 mg/kg
- ED50 [1, 4]: 5.2 mg/kg

SMILES: CN(C)CCON=C1c2ccccc2C2C(c3ccccc31)N2CC1CCC1 (stereo not shown) [Example 22]
- ED50 [1, 3]: 16 mg/kg
- ED50 [1, 4]: 10.8 mg/kg

SMILES: NCCON=C1c2ccccc2C2NC2c2ccccc21 (stereo not shown) [Example 19]
- ED50 in antitetrabenazine test, blockade of exploratory loss (Explor.) ([1]; oral, female mice, normal exploratory activity (relief from sedation), listed as R^2=CH2 CH2 NH2, R^1=H, Z=drawing 41, 60 min): 14. mg/kg
- ED50 in antitetrabenazine test, blockade of ptosis ([1]; oral, female mice, relief from ptosis, listed as R^2=CH2 CH2 NH2, R^1=H, Z=drawing 41, 60 min): 3.4 mg/kg
- water solubility (in words) [2]: Water Soluble

SMILES: CCNCCON=C1c2ccccc2C2NC2c2ccccc21 (stereo not shown) [Example 14]
- ED50 [1, 3]: 9 mg/kg
- ED50 [1, 4]: 4.3 mg/kg

SMILES: c1ccc2c(c1)C(=NOCCN1CCCCC1)c1ccccc1C1NC21 (stereo not shown) [R^2=drawing 45; R^1=H; Z=--]
- ED50 [1, 3]: > 81 mg/kg
- ED50 [1, 4]: 8.3 mg/kg

SMILES: CC(=O)N1C2c3ccccc3C(=NOCCN(C)C)c3ccccc3C21 (stereo not shown) [R^2=CH2 CH2 N(CH3)2; R^1=drawing 43; Z=--]
- ED50 [1, 5]: 19 mg/kg
- ED50 [1, 6]: 13 mg/kg

SMILES: CN(C)CCON=C1c2ccccc2C2C(c3ccccc31)N2C(=O)c1ccccc1 (stereo not shown) [R^2=CH2 CH2 N(CH3)2; R^1=drawing 44; Z=--]
- ED50 [1, 5]: 5.5 mg/kg
- ED50 [1, 6]: 5.2 mg/kg

SMILES: CN(C)CCON=C1c2ccccc2C2C(c3ccccc31)N2C (stereo not shown) [Example 16, Tartaric acid Salt of O-[2-(dimethylamino)ethyl]oxime of 1a, 10b-dihydrodibenzo[3,4,6,7]cyclohept[1,2-b]-N-methylazirin-6(1H)-one]
- ED50 in antitetrabenazine test, blockade of exploratory loss (Explor.) ([1]; oral, female mice, normal exploratory activity (relief from sedation), listed as R^2=CH2 CH2 N(CH3)2, R^1=CH3, Z=. Tartrate, 60 min): 2.7 mg/kg
- ED50 in antitetrabenazine test, blockade of ptosis ([1]; oral, female mice, relief from ptosis, listed as R^2=CH2 CH2 N(CH3)2, R^1=CH3, Z=. Tartrate, 60 min): 0.93 mg/kg
- water solubility (in words) [2]: watersoluble

SMILES: NCCON=C1c2ccccc2C2NC2c2ccccc21 (stereo not shown) [Example 7]
- ED50 in antitetrabenazine test, blockade of exploratory loss (Explor.) ([1]; oral, female mice, normal exploratory activity (relief from sedation), listed as R^2=CH2 CH2 NH2, R^1=H, Z=--, 60 min): 6.6 mg/kg
- ED50 in antitetrabenazine test, blockade of ptosis ([1]; oral, female mice, relief from ptosis, listed as R^2=CH2 CH2 NH2, R^1=H, Z=--, 60 min): 1.3 mg/kg
